# According to PMC5053896 (Journal of the American Chemical Society, 2016):
# Where two headings read alike, the source gives them in different places.
# How the values were obtained:
# [1] = molecular target: WecA (polyprenyl phosphate-GlcNAc-1-phosphate transferase) (Mycobacterium tuberculosis, UniProt P9WMW5); format: biochemical, M. tuberculosis; details: for IC50: read-out: WecA inhibition IC50
# [2] = test system: M. tuberculosis; assay: M. tuberculosis growth inhibition, microdilution broth method; format: cell-based; details: for M. tuberculosis growth inhibition MIC50: microdilution broth method
# [3] = test system: Staphylococcus aureus; details: Staphylococcus aureus infected mice; cited from earlier work
# [4] = test system: Gram-positive and Gram-negative bacteria; details: both Gram-positive and Gram-negative bacteria; cited from earlier work
# [5] = molecular target: MurX (Mycobacterium tuberculosis, UniProt P9WMW7); assay: biochemical; format: biochemical, M. tuberculosis
# [6] = test system: MraY; details: read-out: MraY enzyme inhibitory activity IC50; cited from earlier work
# [7] = test system: bacteria; details: cited from earlier work
compound,measurement,setting,value
"CO[C@H]1[C@H](O[C@H]([C@H]2O[C@@H](n3ccc(=O)[nH]c3=O)[C@H](O)[C@@H]2O)[C@H](NCCCNC(=O)[C@H](CC(C)C)NC(=O)[C@@H](NC(=O)N[C@H](C(=O)O)C(C)C)[C@@H]2CCN=C(N)N2)C(=O)O)O[C@H](CN)[C@H]1O [Muraymycin D1 (1), Muraymycin D1]",IC50,[1],690 nM
same,M. tuberculosis growth inhibition MIC50,[2],1.56 µg/mL
same,M. tuberculosis growth inhibition MIC50,[2]; listed as 1,1.56 to 6.25 µg/mL
Muraymycin D1-amide [Muraymycin D1-amide (2)],M. tuberculosis growth inhibition MIC50,[2],1.56 µg/mL
same,M. tuberculosis growth inhibition MIC50,[2]; listed as 2,1.56 to 6.25 µg/mL
COC1C(C(OC2OC(C(=O)NC3CCCCNC3=O)=CC(O)C2O)C(N)=O)OC(n2ccc(=O)[nH]c2=O)C1OC (stereo not shown) [UT-01320],IC50,[1],60 nM
same,M. tuberculosis growth inhibition MIC50,[2],1.56 µg/mL
CO[C@H]1[C@H](O[C@H]([C@H]2O[C@@H](n3ccc(=O)[nH]c3=O)[C@H](O)[C@@H]2O)[C@H](NCCCNC(=O)[C@@H](NC(=O)[C@@H](NC(=O)N[C@H](C(=O)O)C(C)C)[C@@H]2CCN=C(N)N2)[C@@H](OC(=O)CCCCCCCCCCCCN(O)C(=N)N)C(C)C)C(=O)O)O[C@H](CN)[C@H]1O [Muraymycin A1],ED50,[3],1.1 mg/kg
same,bactericidal activity,[4],bactericidal activity
Muraymycin D1-diamide [Muraymycin D1-diamide (3)],Inhibition of WecA enzyme relative to 1 and 2,[1],~ 10 times
same,M. tuberculosis growth inhibition MIC50,[2],6.25 µg/mL
same,M. tuberculosis growth inhibition MIC50,[2]; listed as 3,1.56 to 6.25 µg/mL
Tunicamycin,IC50,[5]; read-out: MurX inhibition IC50,3380 nM
same,IC50,[1],150 nM
same,M. tuberculosis growth inhibition MIC50,[2],3.13 µg/mL
CC(C)C[C@H](NC(=O)[C@@H](NC(=O)N[C@H](C(=O)O)C(C)C)[C@@H]1CCN=C(N)N1)C(=O)NCCCN[C@H](C(=O)O)[C@H](O[C@@H]1O[C@H](CN)[C@@H](O)[C@H]1O)[C@H]1O[C@@H](n2ccc(=O)[nH]c2=O)[C@H](O)[C@@H]1O [muraymycin D2],IC50,[6],10 nM
same,antibacterial activity,[7],no significant antibacterial activity
CO[C@H]1[C@@H](O)[C@H](n2ccc(=O)[nH]c2=O)O[C@@H]1[C@@H](O[C@H]1OC(C(=O)N[C@H]2CCCCNC2=O)=C[C@H](O)[C@@H]1O)C(N)=O [Capuramycin],IC50,[5],220 nM
same,MIC50,"[2]; Mycobacterium tuberculosis, read-out: M. tuberculosis growth inhibition MIC50",6.25 µg/mL
